In patent publication USRE47689E1, “Compounds for treating spinal muscular atrophy” (PTC Therapeutics, Inc., priority 2011, dated 2019):
Where two headings read alike, the source gives them in different places.

What was measured:
[1] = system: Smn protein; assay: Smn protein assay in cultured cells (SMN HTRF); type: cell-based, human; settings: 48 hours; for maximum fold (Fold) increase of Smn protein: SMA patient fibroblast cells, 7-point concentration data, fold increase relative to vehicle control (SMN HTRF); for EC1.5x (concentration giving 1.5-fold Smn protein increase): SMA Type 1 patient fibroblast cells (GM03813), 7-point concentration curve, SMN HTRF, concentration producing 1.5 times Smn protein vs DMSO vehicle control, read-out: EC1.5x for Smn protein expression
Procedure, shortened: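 Lysates in RIPA with protease inhibitors are incubated overnight at room temperature with HTRF anti-SMN antibodies. EC1.5x is derived from fold increase in ΔF over vehicle.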

[2] = system: SMN2 minigene (full length SMN2 minigene mRNA containing SMN2 exon 7); assay: SMN2 minigene mRNA splicing RT-qPCR assay in cultured cells; type: cell-based, human; settings: Homo sapiens, HEK293-H, read-out: EC1.5x for production of full length SMN2 mRNA
Procedure, shortened: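 HEK293H cells stably carrying the SMN2-A minigene treated 24 h at 37° C with compound (DMSO, 200× stock), then lysed. Multiplex RT-qPCR (SMN primers 0.4 μM final; 40 cycles) measures full-length exon 7-containing minigene mRNA, normalized to GAPDH and to vehicle; EC1.5x derived and binned by stars.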

[3] = HEK293H cells stably transfected with SMN2-A minigene, 24 hours, 7-point concentration curve, 1.5-fold relative to vehicle-treated cells

Compound	maximum fold (Fold) increase of Smn protein [1]	EC (1.5-fold) [2, 3]	melting point	EC1.5x (concentration giving 1.5-fold Smn protein increase) [1]	EC (1.5-fold) ([2]; 24 h)
CN1CCN(c2cc(F)c3cc(-c4nc5ccccc5[nH]4)c(=O)oc3c2)CC1 [Compound 370, 3-(1H-benzimidazol-2-yl)-5-fluoro-7-(4-methylpiperazin-1-yl)-2H-chromen-2-one]	* (maximum fold increase of ≤1.2)	0.3 to 1 µM	281 to 284 °C		
C[C@@H]1CN(c2cc(F)c3cc(-c4nc5ccccc5[nH]4)c(=O)oc3c2)C[C@H](C)N1 [Compound 371, 3-(1H-benzimidazol-2-yl)-7-[(3R,5S)-3,5-dimethylpiperazin-1-yl]-5-fluoro-2H-chromen-2-one]	* (maximum fold increase of ≤1.2)	0.3 to 1 µM	288 to 294 °C		
CN1CCN(c2cc(F)c3cc(-c4cn5ccsc5n4)c(=O)oc3c2)CC1 [Compound 372, 5-fluoro-3-(imidazo[2,1-b][1,3]thiazol-6-yl)-7-(4-methylpiperazin-1-yl)-2H-chromen-2-one]	** (fold increase between >1.2 and ≤1.35)	0.1 to 0.3 µM	268 to 271 °C		
CN1CCCN(c2cc(F)c3cc(-c4cn5ccsc5n4)c(=O)oc3c2)CC1 [Compound 373, 5-fluoro-3-(imidazo[2,1-b][1,3]thiazol-6-yl)-7-(4-methyl-1,4-diazepan-1-yl)-2H-chromen-2-one]	**** (fold increase between >1.5 and ≤1.65)	< 0.1 µM	205 to 207 °C	300 to 1000 nM	
O=c1oc2cc(N3CCCNCC3)cc(F)c2cc1-c1nc2ccccc2[nH]1 [Compound 374, 3-(1H-benzimidazol-2-yl)-7-(1,4-diazepan-1-yl)-5-fluoro-2H-chromen-2-one]	* (maximum fold increase of ≤1.2)	1 to 3 µM	236 to 242 °C		
O=c1oc2cc(N3CCNCC3)cc(F)c2cc1-c1nc2ccccc2[nH]1 [Compound 375, 3-(1H-benzimidazol-2-yl)-5-fluoro-7-(piperazin-1-yl)-2H-chromen-2-one]	** (fold increase between >1.2 and ≤1.35)	0.3 to 1 µM	245 to 250 °C		
C[C@H]1CN(c2ccc3cc(-c4cn5cc(Cl)cnc5n4)c(=O)oc3c2)CCN1 [Compound 376, 3-(6-chloroimidazo[1,2-a]pyrimidin-2-yl)-7-[(3S)-3-methylpiperazin-1-yl]-2H-chromen-2-one]	* (maximum fold increase of ≤1.2)	1 to 3 µM	260 to 262 °C		
Cc1cnc2nc(-c3cc4ccc(N5CCCNCC5)cc4oc3=O)cn2c1 [Compound 378, 7-(1,4-diazepan-1-yl)-3-(6-methylimidazo[1,2-a]pyrimidin-2-yl)-2H-chromen-2-one]	** (fold increase between >1.2 and ≤1.35)	0.1 to 0.3 µM	275 to 278 °C		
Cc1ccn2cc(-c3cc4ccc(N5CCN(C)[C@@H](C)C5)cc4oc3=O)nc2c1 [Compound 379, 7-[(3S)-3,4-dimethylpiperazin-1-yl]-3-(7-methylimidazo[1,2-a]pyridin-2-yl)-2H-chromen-2-one]	*** (fold increase between >1.35 and ≤1.5)	0.3 to 1 µM	231 to 241 °C		
O=c1oc2cc(N3CCNCC3)ccc2cc1-c1cccc(F)n1 [Compound 380, 3-(6-fluoropyridin-2-yl)-7-(piperazin-1-yl)-2H-chromen-2-one]	** (fold increase between >1.2 and ≤1.35)		196 to 198 °C		0.3 to 1 µM
CCOc1cccc(-c2cc3ccc(N4CCN(C)CC4)cc3oc2=O)n1 [Compound 381, 3-(6-ethoxypyridin-2-yl)-7-(4-methylpiperazin-1-yl)-2H-chromen-2-one]	* (maximum fold increase of ≤1.2)	1 to 3 µM	170 to 172 °C		
COc1ccc(-c2cc3ccc(N4CCN[C@H](C)C4)cc3oc2=O)cc1OC [Compound 382, 3-(3,4-dimethoxyphenyl)-7-[(3R)-3-methylpiperazin-1-yl]-2H-chromen-2-one]	* (maximum fold increase of ≤1.2)	1 to 3 µM	143 to 145 °C		
COc1ccc(-c2cc3ccc(N4CCN[C@@H](C)C4)cc3oc2=O)cc1OC [Compound 383, 3-(3,4-dimethoxyphenyl)-7-[(3S)-3-methylpiperazin-1-yl]-2H-chromen-2-one]	**** (fold increase between >1.5 and ≤1.65)	0.1 to 0.3 µM	140 to 143 °C	1000 to 3000 nM	
COc1ccc(-c2cc3ccc(N4C[C@@H](C)N[C@@H](C)C4)cc3oc2=O)cc1OC [Compound 384, 3-(3,4-dimethoxyphenyl)-7-[(3R,5S)-3,5-dimethylpiperazin-1-yl]-2H-chromen-2-one]	* (maximum fold increase of ≤1.2)	3 to 30 µM	130 to 132 °C		
COc1cc(OC)cc(-c2cc3ccc(N4CCCNCC4)cc3oc2=O)c1 [Compound 387, 7-(1,4-diazepan-1-yl)-3-(3,5-dimethoxyphenyl)-2H-chromen-2-one]	* (maximum fold increase of ≤1.2)	3 to 30 µM	238 to 240 °C		
C[C@@H]1CN(c2cc(F)c3cc(-c4cn5cccc(Cl)c5n4)c(=O)oc3c2)C[C@H](C)N1 [Compound 388, 3-(8-chloroimidazo[1,2-a]pyridin-2-yl)-7-[(3R,5S)-3,5-dimethylpiperazin-1-yl]-5-fluoro-2H-chromen-2-one]	** (fold increase between >1.2 and ≤1.35)	0.3 to 1 µM	290 to 300 °C		
Cc1cc(C)c2nc(-c3cc4ccc(N5CCCN(C)CC5)cc4oc3=O)cn2c1 [Compound 389, 3-(6,8-dimethylimidazo[1,2-a]pyridin-2-yl)-7-(4-methyl-1,4-diazepan-1-yl)-2H-chromen-2-one]	*** (fold increase between >1.35 and ≤1.5)	0.3 to 1 µM	164 to 169 °C		
C[C@@H]1CN(c2cc(F)c3cc(-c4cn5cccc(Cl)c5n4)c(=O)oc3c2)CCN1 [Compound 390, 3-(8-chloroimidazo[1,2-a]pyridin-2-yl)-5-fluoro-7-[(3R)-3-methylpiperazin-1-yl]-2H-chromen-2-one]	*** (fold increase between >1.35 and ≤1.5)	0.1 to 0.3 µM	266 to 276 °C		
O=c1oc2cc(N3CCNCC3)cc(F)c2cc1-c1cn2cccc(Cl)c2n1 [Compound 392, 3-(8-chloroimidazo[1,2-a]pyridin-2-yl)-5-fluoro-7-(piperazin-1-yl)-2H-chromen-2-one]	** (fold increase between >1.2 and ≤1.35)	0.3 to 1 µM	241 to 250 °C		
C[C@H]1CN(c2cc(F)c3cc(-c4cn5cccc(Cl)c5n4)c(=O)oc3c2)CCN1 [Compound 393, 3-(8-chloroimidazo[1,2-a]pyridin-2-yl)-5-fluoro-7-[(3S)-3-methylpiperazin-1-yl]-2H-chromen-2-one]	*** (fold increase between >1.35 and ≤1.5)	0.3 to 1 µM	268 to 278 °C		
